Data: patent publication EP4094762A1, “TREATMENT OF NEUROLOGICAL INDICATIONS” (UCL Business Ltd, priority 2021, dated 2022)
Where two headings read alike, the source gives them in different places. Marks after values point to notes of the source that are not given here. Blank lines part the entries; values can stand above or below the compound they belong to.

Experiments:
[1] = molecular target: T1, P2Y1 receptor (Homo sapiens, UniProt P47900); assay: Cell based HTRF assay measuring IP1 accumulation; antagonism of the P2Y1 agonist MRS2365; conditions: rounded to nearest whole number
T1 construct: expressed in transfected cells
T1 sequence (P47900 whole entry): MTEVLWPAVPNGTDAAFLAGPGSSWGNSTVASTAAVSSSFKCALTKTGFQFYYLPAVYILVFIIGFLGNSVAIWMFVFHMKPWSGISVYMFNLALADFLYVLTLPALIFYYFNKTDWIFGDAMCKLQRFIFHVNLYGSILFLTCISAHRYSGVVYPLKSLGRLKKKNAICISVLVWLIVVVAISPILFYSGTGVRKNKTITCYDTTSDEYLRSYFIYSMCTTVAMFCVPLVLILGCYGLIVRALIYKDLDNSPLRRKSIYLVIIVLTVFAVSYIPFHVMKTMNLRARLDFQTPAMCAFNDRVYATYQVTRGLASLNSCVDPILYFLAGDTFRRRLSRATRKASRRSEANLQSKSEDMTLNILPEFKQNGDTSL
Experimental: IC50 values were determined using a cell based assay in stably transfected cells overexpressing the P2Y1 receptor. The assay system is a high throughput […] assay measuring accumulation of the intracellular messenger inositol monophosphate (IP1), generated intracellularly following activation of P2Y1.
P2Y1 overexpressing cells were maintained in T175 flasks. The day before the assay, these cells were split and 20µl cell suspension transferred to each well of white 384-well assay plates at a cell density of 0.5x10^6 cells/mL. Plates were pulse centrifuged, then incubated overnight at 37°C / 5% CO2 prior to assay.
On day of assay, medium was removed from cells and replaced with stimulation buffer. […] Positive control antagonist curves with standard compounds were included on each plate. Plates were incubated with antagonists for 1 hour prior to addition of 5nM of the agonist MRS2365, dispensed using a Bravo liquid handler. Following agonist addition, plates were incubated for 60 minutes prior to assay. Both incubations were carried out at 37°C / 5% CO2.
For the assay, IP1 accumulation was quantified using the IPOne kit according to manufacturer's instructions. In short, a standard curve was prepared for IP1 quantification, and cells lysed using kit lysis buffer. Assay reagents were added to the lysates, and incubated for 1 hour at room temperature without spinning or shaking. Plates were analysed on a BMG Pherastar plate reader, and IP1 signal generated in cells interpolated from the standard curve.

[2] = CNS penetration: intravenous cassette pharmacokinetic study, brain and plasma by LC-MS/MS; conditions: mouse; for CNS penetrant (asterisk): in vivo; for CNS penetration: total brain to plasma ratio: t = 2 hr, 0.4mg/kg intravenous
Experimental: To assess penetration of compounds into the mouse central nervous system, intravenous pharmacokinetic studies were undertaken in C57B16/J mice. […] Compounds were then combined into a single dosing solution and administered together via the intravenous route into 24 mice. Total compound dose administered to each mouse was 2mg/kg. Mice were culled at various times post dosing and brain and plasma collected for bioanalysis. In particular, mice were culled and plasma collected for bioanalysis at 8 time points out to 24 hours post dosing. Brains were also collected for bioanalysis at various time points to assess CNS penetration. 2 hour and 4 hour brain collection was carried out in all studies. Additional time points were collected in selected studies.
For bioanalysis, compounds were prepared in DMSO and aliquoted together to ensure a final concentration of 1mg/mL per compound in DMSO. Analytical standards were prepared from the initial 1mg/mL stock solution of compound, with a 12-point standard curve range from 0.5ng/mL to 2000ng/mL, with independent quality control tests from 1ng/mL to 1000ng/mL run to validate the standards. All standards and QC samples were matrix matched to eliminate possible suppression. Plasma samples were prepared with a 1:10 dilution in plasma. […] Dose solutions were diluted in a control matrix to a relative concentration that fell on the standard curve. Cold acetonitrile containing internal standard was added to all samples, standards, dose samples and QC samples; samples were then centrifuged for 30 minutes at 4000rpm. After centrifugation, supernatant was transferred to a new 96-well plate, diluted with an equal volume of water and mixed thoroughly before LC-MS analysis.
Supernatents were analysed by LC-MS/MS. From the analysis data a response ratio was obtained using the formula Response Ratio = Test Peak Area/Internal Standard Peak Area. From the standard curve, the test peak area was converted to concentration of test compound.
To establish CNS penetration, the ratio of the concentration of each compound in the plasma samples to the brain samples was assessed.

[3] = In vivo pharmacodynamic EEG study after oral administration; set-up: species or system Sprague-Dawley rats; conditions: rat, 10mg/kg orally
Text: Study to assess in vivo pharmacodynamic activity of BPTU (S1) in the CNS of rats following oral administration.
Pre-surgery: The animals were allowed a minimum period of 7 days acclimatisation on arrival in the facility.
Surgery: Male Sprague-Dawley rats were anaesthetised with isoflurane (2-5% in Oxygen at 11/min) throughout the procedure. The scalp, neck and right flank were cleared of hair using clippers and cleaned using diluted Hibitane (50% (v/v) in water). A non-steroidal anti-inflammatory agent was administered (Carprofen 5mg/kg, s.c.) and the animals placed on a homeothermic blanket (37 °C) with the head fixed in a stereotaxic frame. Incisions were made in the scalp and neck, as well as in the right flank. Blunt dissection of the abdominal muscle was then made to gain access to the peritoneal cavity. A radio transmitter (HD-S02, Data Sciences International) was implanted with the body of the transmitter placed in the peritoneal cavity and secured to the muscle wall with non-absorbable sutures through the body of the transmitter. The wires of the transmitter were passed through the muscle wall and then sub-dermally using a trochar (16G needle) to the scalp to act as EEG/EMG electrodes. The scalp was cleared of connective tissue and two bore holes were made in the skull with a trepanning drill (fronto-parietal coordinates: Bregma +2mm anterior, midline +1.0mm lateral and Lambda 0mm, +1.5mm lateral). The positive EEG electrode was attached to the anterior bore hole and the negative EEG electrode to the posterior bore hole. Both electrodes were secured in place using a suitable adhesive agent (Cyanoacrylate gel, RS components). A second set of electrodes were sutured into the nuchal muscle to act as EMG electrodes. All incisions were closed using absorbable suture. The animals were allowed to recover in a warm environment and given 5ml of saline s.c. The animals were kept singly in the cage until next day, then pair housed for the duration of post-surgical recovery (min 7 days). During the recovery period, the rats received 5 days of standard post-operative care with no further experimental procedures until the pre-operative body weight was regained. The animals were maintained on a 12/12hr light dark cycle after the surgery.
Testing: On study days, the animals were placed in recording boxes individually and EEG/EMG as well as locomotor activity were recorded for 0.5 h before and 24 h after each dosing. […]
The subsequent EEG/EMG recordings were automatically scored (see Table below for sleep stage definitions) as wake, non-REM (NREM) sleep, or REM sleep in 10 second epochs using SleepSign (Kissei Comtec, Japan).
Power spectral analysis was performed on EEG data recorded over the first 3 h. […]

IC50 ([1]; read-out: IC50 IP1): 58 nM
CNS penetrant (asterisk) [2]: S4*
SMILES: O=C(Nc1ccc(OC(F)(F)F)cc1)Nc1cccnc1Oc1ccccc1C1(C(F)(F)F)CC1 [S4, 1-(4-(trifluoromethoxy)phenyl)-3-(2-(2-(1-(trifluoromethyl)cyclopropyl)phenoxy)pyridin-3-yl)urea]

IC50 ([1]; read-out: IC50 IP1): 122 nM
CNS penetrant (asterisk) [2]: S9*
SMILES: Cc1c(Oc2ncccc2NC(=O)Nc2ccc(OC(F)(F)F)cc2)cccc1N1CCCCC1 [S9]

IC50 ([1]; read-out: IC50 IP1): 150 nM
CNS penetrant (asterisk) [2]: S11*
SMILES: CC(C)(C)c1ccccc1Oc1cccc(O)c1NC(=O)Nc1ccc(OC(F)(F)F)cc1 [S11, 1-(2-(2-(tert-butyl)phenoxy)-6-hydroxyphenyl)-3-(4-(trifluoromethoxy)phenyl)urea]

IC50 ([1]; 5nM MRS2365, read-out: IC50): 36 nM
CNS penetration: total brain to plasma ratio [2]: BLLQ^d
SMILES: Cc1ccc(NC(=O)Nc2ccc(OC(F)(F)F)cc2)c(Oc2ccccc2C(C)(C)C)n1 [compound 3, 1-(2-(2-(tert-butyl)phenoxy)-6-methylpyridin-3-yl)-3-(4-(trifluoromethoxy)phenyl)urea, reference compound]

IC50 ([1]; read-out: IC50 IP1): 121 nM
CNS penetrant (asterisk) [2]: S8*
SMILES: CC(C)(C)c1ccccc1Oc1ncccc1NC(=O)Nc1ccc(C(F)(F)F)s1 [S8, 1-(2-(2-(tert-butyl)phenoxy)pyridin-3-yl)-3-(5-(trifluoromethyl)thiophen-2-yl)urea]

SMILES: CC(C)(C)c1ccccc1Oc1ncccc1NC(=O)Nc1ccc(OC(F)(F)F)cc1 [BPTU, 1-(2-(2-(tert-butyl)phenoxy)pyridin-3-yl)-3-(4-(trifluoromethoxy)phenyl)urea]
EEG power, delta band ([3]; during non-REM sleep): Significant increases
EEG power, theta band ([3]; during non-REM sleep): Significant increases
EEG power, gamma frequency band ([3]; during wake): Significant increases
changes in the EEG power spectrum ([3]; first three hours post dosing): significant changes

SMILES: CC(C)(C)c1ccccc1Oc1ncccc1NC(=O)Nc1ccc(OC(F)(F)F)cc1 [S1 (BPTU), 1-(2-(2-(tert-butyl)phenoxy)pyridin-3-yl)-3-(4-(trifluoromethoxy)phenyl)urea]
CNS penetrant (asterisk) ([2]; C57B16/J, 0.4 mg/kg): S1 (BPTU)*

SMILES: CC1(C)CN(c2ccccc2NC(=O)Nc2ccc(OC(F)(F)F)cc2)c2c(O)ccc(-c3ccc(Cl)cc3)c21 [compound 1, reference compound]
IC50 ([1]; 5nM MRS2365, read-out: IC50): 33 nM
CNS penetration: total brain to plasma ratio [2]: BLLQ^d
